Source: patent US20250382344A1, “Soluble GLP1/GIP/NPY2 Receptor Triple Agonists” (Boehringer Ingelheim International GmH, priority 2024, published 2025)
Read-outs that look alike come from different tables or passages of the source. *1 amine or outer side, *2 acyl side, *3 side chain or, on linkers, in order; H or OH if unused. Where a SMILES comes first, the peptide text is derived from it. Side-chain parts run from the residue outwards. [ ]: non-standard residue; d: D form. The star is where a group is joined. Argψ(CH2NH)TyrNH2 = N=C(N)NCCC[C@@H](CN[C@@H](Cc1ccc(O)cc1)C(N)=O)N*; C20 diacid = O=C(O)CCCCCCCCCCCCCCCCCCC(=O)*; γGlu = O=C(O)[C@H](CCC(=O)[*:2])N[*:1]; εLys = N[C@@H](CCCCN[*:1])C(=O)[*:2]; Aib = CC(C)(N)C(=O)O

Tests used:
Format in all cases: cell-based
hGIPR = target: T1, hGIPR (Homo sapiens, UniProt P48546); experiment: hGIPR CreLuc assay in 0.5% and 100% plasma (CHO CRE-luciferase reporter cells)
T1 construct: expressed in transfected cells; host or cells: CHO CRE-luciferase reporter cells
T1 sequence (P48546 22-466): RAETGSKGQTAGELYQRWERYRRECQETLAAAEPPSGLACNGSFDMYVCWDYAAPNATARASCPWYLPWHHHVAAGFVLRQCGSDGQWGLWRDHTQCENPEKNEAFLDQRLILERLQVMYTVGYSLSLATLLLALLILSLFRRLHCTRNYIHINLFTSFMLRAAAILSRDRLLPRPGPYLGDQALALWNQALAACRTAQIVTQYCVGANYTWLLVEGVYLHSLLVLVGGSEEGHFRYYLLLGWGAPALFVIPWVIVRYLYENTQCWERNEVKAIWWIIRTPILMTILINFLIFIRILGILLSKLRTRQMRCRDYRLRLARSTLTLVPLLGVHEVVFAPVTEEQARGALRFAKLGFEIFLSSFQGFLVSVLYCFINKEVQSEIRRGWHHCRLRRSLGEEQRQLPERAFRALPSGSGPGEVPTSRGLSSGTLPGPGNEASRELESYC

hNPY2R = target: T2, hNPY2R (Homo sapiens, UniProt P49146); experiment: hNPY2R CreLuc assay in 0.5% and 100% plasma (HEK-293 CRE-luciferase reporter cells); settings: HEK-293 reporter cells
T2 construct: expressed in transfected cells; host or cells: HEK-293 CRE-luciferase reporter cells
T2 sequence (P49146 1-381): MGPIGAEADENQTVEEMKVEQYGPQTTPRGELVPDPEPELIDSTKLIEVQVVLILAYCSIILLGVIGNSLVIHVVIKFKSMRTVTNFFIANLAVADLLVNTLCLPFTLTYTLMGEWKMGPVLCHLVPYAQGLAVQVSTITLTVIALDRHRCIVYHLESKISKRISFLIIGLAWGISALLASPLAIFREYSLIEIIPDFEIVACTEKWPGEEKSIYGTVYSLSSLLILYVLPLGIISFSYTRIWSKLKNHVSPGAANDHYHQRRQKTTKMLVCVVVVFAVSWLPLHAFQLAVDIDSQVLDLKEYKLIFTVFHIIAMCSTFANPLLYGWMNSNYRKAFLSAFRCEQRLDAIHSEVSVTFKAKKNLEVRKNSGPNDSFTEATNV

hGLP1R = target: T3, hGLP1R (Homo sapiens, UniProt P43220); experiment: hGLP1R CreLuc assay in 0.5% and 100% plasma (HEK-293 CRE-luciferase reporter cells); settings: HEK-293 reporter cells
T3 construct: expressed in transfected cells; host or cells: HEK-293 CRE-luciferase reporter cells
T3 sequence (P43220 24-463): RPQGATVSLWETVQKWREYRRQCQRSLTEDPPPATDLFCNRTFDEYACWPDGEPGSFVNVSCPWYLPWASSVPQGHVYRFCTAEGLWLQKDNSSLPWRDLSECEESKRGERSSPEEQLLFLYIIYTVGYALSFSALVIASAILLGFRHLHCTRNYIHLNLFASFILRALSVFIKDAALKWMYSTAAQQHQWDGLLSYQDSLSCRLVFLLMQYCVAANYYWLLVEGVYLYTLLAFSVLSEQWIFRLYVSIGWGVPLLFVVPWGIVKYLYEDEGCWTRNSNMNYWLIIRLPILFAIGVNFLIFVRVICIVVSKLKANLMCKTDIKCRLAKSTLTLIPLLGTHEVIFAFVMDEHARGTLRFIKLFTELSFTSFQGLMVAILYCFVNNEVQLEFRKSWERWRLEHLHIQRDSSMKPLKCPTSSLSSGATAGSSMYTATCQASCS

[1] = 0.5% human plasma, read-out: hGIPR 0.5% hP
[2] = 100% human plasma, read-out: hGIPR 100% hP
[3] = 0.5% human plasma, read-out: hGLP1R 0.5% hP

EC50 (hGIPR; [1]) [nM]	EC50 (hGIPR; [2]) [nM]	EC50 (hNPY2R; 0.5% human plasma, read-out: hNPY2R 0.5% hP) [nM]	EC50 (hGLP1R; [3]) [nM]	EC50 (hGLP1R; 100% human plasma, read-out: hGLP1R 100% hP) [nM]	EC50 (hNPY2R; 100% human plasma, read-out: hNPY2R 100% hP) [nM]	Structure (SMILES)
0.5	2	6.4	0.7	1.8	–	CC[C@H](C)[C@H](NC(=O)[C@H](CC(C)C)NC(=O)[C@H](Cc1c[nH]cn1)NC(=O)[C@H](CCCNC(=N)N)NC(=O)[C@@H](NC(=O)[C@H](Cc1ccccc1)NC(=O)[C@H](C)NC(=O)C(C)(C)NC(=O)[C@H](CCC(N)=O)NC(=O)[C@H](C)NC(=O)[C@H](CCC(N)=O)NC(=O)[C@H](CCCCN)NC(=O)[C@H](CC(=O)O)NC(=O)[C@H](CC(C)C)NC(=O)C(C)(C)NC(=O)[C@@H](NC(=O)[C@H](CO)NC(=O)[C@H](Cc1ccc(O)cc1)NC(=O)[C@H](CC(=O)O)NC(=O)[C@H](CO)NC(=O)[C@@H](NC(=O)[C@H](Cc1ccccc1)NC(=O)[C@@H](NC(=O)CNC(=O)[C@H](CCC(=O)O)NC(=O)C(C)(C)NC(=O)[C@@H](N)Cc1ccc(O)cc1)[C@@H](C)O)[C@@H](C)O)[C@@H](C)CC)C(C)C)C(=O)N[C@@H](CC(N)=O)C(=O)N[C@@H](CCCCNC(=O)[C@@H](N)CCCCNC(=O)CC[C@H](NC(=O)CC[C@H](NC(=O)CC[C@H](NC(=O)CC[C@H](NC(=O)CC[C@H](NC(=O)CC[C@H](NC(=O)CC[C@H](NC(=O)CCCCCCCCCCCCCCCCCCC(=O)O)C(=O)O)C(=O)O)C(=O)O)C(=O)O)C(=O)O)C(=O)O)C(=O)O)C(=O)NC(C)(C)C(=O)N[C@H](C(=O)N[C@@H](CCCNC(=N)N)C(=O)N[C@@H](CCC(N)=O)C(=O)N[C@@H](CCCNC(=N)N)CN[C@@H](Cc1ccc(O)cc1)C(N)=O)[C@@H](C)O [Compound 16, Y-Aib-E-G-T-F-T-S-D-Y-S-I-Aib-L-D-K-Q-A-Q-Aib-A-F-V-R-H-L-I-N-K(1,3)-Aib-T-R-Q-dOR-Y-NH2.C20DA-gGlu-gGlu-gGlu-gGlu-gGlu-gGlu-gGlu-eLys(1,2)] (H-Y[Aib]EGTFTSDYSI[Aib]LDKQAQ[Aib]AFVRHLINK([εLys-γGlu-γGlu-γGlu-γGlu-γGlu-γGlu-γGlu-C20 diacid])[Aib]TRQ-{Argψ(CH2NH)TyrNH2})
0.3	5.9	–	0.8	–	162	CC[C@H](C)[C@H](NC(=O)[C@H](CC(C)C)NC(=O)[C@H](Cc1c[nH]cn1)NC(=O)[C@H](CCCNC(=N)N)NC(=O)[C@@H](NC(=O)[C@H](Cc1ccccc1)NC(=O)[C@H](C)NC(=O)C(C)(C)NC(=O)[C@H](CCC(N)=O)NC(=O)[C@H](C)NC(=O)[C@H](CCC(N)=O)NC(=O)[C@H](CCCCN)NC(=O)[C@H](CCC(=O)O)NC(=O)[C@H](CC(C)C)NC(=O)C(C)(C)NC(=O)[C@@H](NC(=O)[C@H](CO)NC(=O)[C@H](Cc1ccc(O)cc1)NC(=O)[C@H](CC(=O)O)NC(=O)[C@H](CO)NC(=O)[C@@H](NC(=O)[C@H](Cc1ccccc1)NC(=O)[C@@H](NC(=O)CNC(=O)[C@H](CCC(=O)O)NC(=O)C(C)(C)NC(=O)[C@@H](N)Cc1ccc(O)cc1)[C@@H](C)O)[C@@H](C)O)[C@@H](C)CC)C(C)C)C(=O)N[C@@H](CC(N)=O)C(=O)N[C@@H](CCCCNC(=O)[C@@H](N)CCCCNC(=O)CC[C@H](NC(=O)CC[C@H](NC(=O)CC[C@H](NC(=O)CC[C@H](NC(=O)CC[C@H](NC(=O)CC[C@H](NC(=O)CCCCCCCCCCCCCCCCC(=O)O)C(=O)O)C(=O)O)C(=O)O)C(=O)O)C(=O)O)C(=O)O)C(=O)NC(C)(C)C(=O)N[C@H](C(=O)N[C@@H](CCCNC(=N)N)C(=O)N[C@@H](CCC(N)=O)C(=O)N[C@@H](CCCNC(=N)N)C(=O)N[C@@H](Cc1ccc(F)cc1)C(N)=O)[C@@H](C)O [Compound 86, Y-Aib-E-G-T-F-T-S-D-Y-S-I-Aib-L-E-K-Q-A-Q-Aib-A-F-V-R-H-L-I-N-K(1,3)-Aib-T-R-Q-R-Phe4F-NH2.C18DA-gGlu-gGlu-gGlu-gGlu-gGlu-gGlu-eLys(1,2)]
